The structures appear in SMILES notation.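 Cells were grown in 96-well plates and exposed to each compound for 48 hours at five concentrations; endpoints were interpolated linearly between bracketing concentrations, or set to the highest concentration if not reached. GI50 marks 50% less growth. At the TGI there is no net growth.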 Some results are limits rather than exact numbers.

This passage reports GI50 and TGI results from PubChem BioAssay (NCI).

Assay in all cases: growth of human tumour cells (NCI), 48 h
Experiment [1] concerns SF-295 CNS.
The test system of experiment [2] is HT29 colon.
Experiment [3] has as its system TK-10 renal.
The test system of experiment [4] is IGROV1 ovarian.
The test system of experiment [5] is EKVX NSCLC.
The subject of experiment [6] is HCC-2998 colon.
In experiment [7] the test system is A549 NSCLC.
For experiment [8], the system named is HCT-15 colon.
The test system of experiment [9] is RPMI-8226 leukemia.
Experiment [10] deals with SR leukemia.

Turning to `O=C1c2ccccc2C(=O)c2c1ccc1c(=O)n(-c3ccccc3C(F)(F)F)nnc21`, the GI50 was 2.59 µM in [1]; 3.43 µM in [2]; 3.89 µM in experiment [3]; 1.33 µM in [4]; 2.36 µM in [5]; 2.45 µM in experiment [6]. The TGI is 7.02 µM in experiment [1]; > 100 µM in [2]; > 100 µM in [3]; 3.31 µM in experiment [4]; 6.43 µM in experiment [5]; 6.16 µM in experiment [6].
In the case of `CN(C)C=NC1CCC(C(C)(C)C)CC1` (configuration not stated), the TGI in experiment [1] is 31.2 µM; in [2] it was 21.6 µM; in experiment [7] it was 38.9 µM; in experiment [3], 38.6 µM; in experiment [4], 37.9 µM; in [8], 32.8 µM. Also, the TGI in experiment [5] was determined as 59.8 µM; in experiment [6], 27.9 µM.
As for `Cc1cc(=O)n(-c2c(C)cccc2Cl)c(/C=C(\O)c2ccncc2)n1`, the TGI in experiment [1], in experiment [2], in experiment [7], in experiment [3], in experiment [4] and in [8] was > 100 µM throughout. The TGI in experiment [5] and in experiment [6] was > 100 µM in each case.
With `COc1ccc(Cl)cc1Nc1nc(C(F)(F)F)ccc1C(=O)N/N=C/c1cccnc1`, the GI50 is 1.28 µM in experiment [1]; 6.01 µM in experiment [2]; 5.49 µM in experiment [7]; 5.9 µM in experiment [3]; 4.33 µM in experiment [4]; 1.42 µM in experiment [8]. In addition, the figures for the GI50 in experiment [5], in experiment [9] and in experiment [6] were 2.98 µM, 2.28 µM and 1.99 µM, respectively. In addition, the TGI in experiment [1] is 9.52 µM; in [2], > 100 µM; in experiment [7], > 100 µM; in experiment [3], > 100 µM; in [4], > 100 µM; in experiment [8], > 100 µM. In addition, the TGI in experiment [5], in [9] and in experiment [6] was > 100 µM each time.
For `Clc1ccc2ncc(-c3cccc(NC4CNC4)n3)n2c1`, the GI50 is 3.34 µM in [1]; 3.21 µM in experiment [2]; 4.71 µM in [7]; 8.03 µM in experiment [3]; 4.57 µM in experiment [4]; 5.39 µM in [8]. In addition, the GI50 in [10] is 1.97 µM; in experiment [6], 12.9 µM. Moreover, the TGI in [1] was 20.2 µM; in [2], > 100 µM; in [7], > 100 µM; in [3], 93.3 µM; in [4], 44.6 µM; in [8], > 100 µM. Also, the TGI in experiment [10] was > 100 µM; in [6], 68.2 µM.
On to `CC(=O)Nc1ccc(/C=C2\N=C(c3ccccc3)OC2=O)cc1`, for which the TGI in [1] was > 100 µM; in experiment [7], > 100 µM; in experiment [3], > 100 µM; in [4] it was > 31.6 µM; in experiment [8] it was > 100 µM; in [5], > 100 µM. For the same compound, the TGI in [9] and in [6] was > 100 µM throughout.
Take `COc1cccc(/C=C/c2ccnc3ccccc23)c1OC`: the TGI in [1], in experiment [2], in experiment [7], in experiment [3], in [4] and in [8] was > 10 µM throughout. The TGI in [5], in [9] and in [6] was > 10 µM throughout.
With `CC(=O)[CH-]C(=O)c1ccccc1.CC(=O)[CH-]C(=O)c1ccccc1.CC(C)CCC[C@H](C)C1CCC2[C@@H]3CC=C4C[C@@H]([O-])CC[C@]4(C)C3CC[C@@]21C.CC(C)CCC[C@H](C)C1CCC2[C@@H]3CC=C4C[C@@H]([O-])CC[C@]4(C)C3CC[C@@]21C.Cl.[Ti+4]` (some centres not stated), the GI50 in [1], in experiment [2], in experiment [7], in [3], in experiment [4] and in experiment [8] was > 25 µM in each case. In addition, the GI50 in [5], in [9] and in [6] was > 25 µM throughout. Moreover, the TGI in experiment [1], in experiment [2], in experiment [7], in experiment [3], in experiment [4] and in experiment [8] was > 25 µM throughout. For the same compound, the TGI in experiment [5], in experiment [9] and in [6] was > 25 µM each time.
As to `CCOc1ccc(OCC)c([P+](c2ccccc2)(c2ccccc2)c2ccccc2)c1`, the TGI in [1] is 6.38 µM; in experiment [2], 12.9 µM; in experiment [7], 11.6 µM; in [3], 12 µM; in experiment [4], 13.3 µM; in experiment [5], 16.5 µM. Besides, the TGI is 2.36 µM in experiment [9] and 11 µM in experiment [6].
In the case of `CCN(CC)c1ccc2nc3c4ccccc4c(=O)cc-3n(-c3ccccc3)c2c1`, the GI50 in experiment [1] is 1.29 µM; in [2], 0.902 µM; in [7], 1.45 µM; in [3] it was 1.77 µM; in experiment [4], 0.62 µM; in [8], 2.1 µM. Also, the GI50 was 1.04 µM in [5] and 0.49 µM in experiment [9]. The TGI in [1] worked out at 3.28 µM; in [2], 8.42 µM; in experiment [7] it was 3.96 µM; in [3] it was 5.63 µM; in experiment [4], 2.92 µM; in [8], 49.3 µM. Further, the TGI in experiment [5] worked out at 5.85 µM; in [9], 2.58 µM.
In the case of `COc1ccc2c(c1)[n+](=O)c(C(=O)C/C(=N/NC(=O)C[N+](C)(C)C)C(=O)Nc1cccc(C)c1C)c(C)n2O`, the TGI in [1], in experiment [2], in experiment [7], in experiment [4], in experiment [8] and in experiment [5] was > 100 µM throughout. Also, the TGI in experiment [9] and in [6] was > 100 µM each time.
Turning to `COc1ccccc1/C=C/C1=C(C)CCC(c2ccccc2OC)C1C` (configuration not stated), the GI50 is < 0.0201 µM in experiment [1]; 0.167 µM in experiment [2]; 0.223 µM in [7]; 0.227 µM in experiment [3]; 0.132 µM in experiment [4]; 0.129 µM in experiment [8]. For the same compound, the GI50 in [5] is 0.119 µM; in experiment [9], 0.0449 µM; in experiment [6], 0.249 µM. The TGI is 1.53 µM in experiment [1]; 45.1 µM in experiment [3]; > 63.5 µM in experiment [4]; > 100 µM in experiment [8]; > 100 µM in experiment [5]; > 100 µM in experiment [9]. The TGI in [6] turned out to be 1.56 µM.
Take `COc1ccc(S(=O)(=O)N[C@H](C(=O)O)c2ccccc2)cc1`: the TGI in [1], in experiment [2], in experiment [7], in experiment [3], in experiment [4] and in experiment [8] was > 100 µM in each case. The TGI in [5], in experiment [9] and in [6] was > 100 µM in each case.
Turning to `c1ccc(-c2n(Cc3ccc4ccccc4c3)cc[n+]2Cc2ccc3ccccc3c2)cc1`, the GI50 in experiment [1] is 1.26 µM; in [3], 1.34 µM; in experiment [4], 0.651 µM; in experiment [8] it was 1.79 µM; in experiment [10] it was 0.972 µM. Further, the TGI in [1] is 2.55 µM; in [3] it was 2.83 µM; in [4], 2.13 µM; in experiment [8], 3.46 µM; in experiment [10] it was 3.4 µM.
On to `CCCCCCCCCCCCCCCCCCOc1ccccc1CC(=O)OCC[N+](CC)(CC)CC`, for which the GI50 in experiment [1] is 1.27 µM; in [2] it was 1.63 µM; in experiment [7], 1.44 µM; in experiment [3], 1.45 µM; in experiment [4], 0.923 µM; in experiment [8], 4.39 µM. Further, the figures for the GI50 in [5] and in [6] were 2.15 µM and 1.22 µM, respectively. In addition, the TGI came to 5.11 µM in experiment [1]; 8.58 µM in experiment [2]; 7.42 µM in experiment [7]; 7.65 µM in experiment [3]; 1.97 µM in [4]; 13.1 µM in experiment [8]. Besides, the TGI came to 8.44 µM in experiment [5] and 3.9 µM in experiment [6].
As for `Cc1ccc(-c2nc3cc(Cl)c(Cl)cc3nc2C#N)cc1`, the GI50 in [1] is > 100 µM; in [2], > 100 µM; in [7], > 100 µM; in [3], 49.2 µM; in experiment [4], > 100 µM; in [8], > 100 µM. The GI50 in experiment [5] was > 100 µM. Further, the TGI in experiment [1], in experiment [2], in experiment [7], in [3], in experiment [4] and in experiment [8] was > 100 µM throughout. Besides, the TGI in experiment [5] is > 100 µM.
In the case of `COC1[C@H](NC(=O)OC(C)(C)C)C(=O)N1Cc1ccccc1` (some centres not stated), the TGI in [1], in experiment [2], in [7], in experiment [3], in experiment [4] and in [8] was > 100 µM in each case. Further, the TGI in [5], in experiment [9] and in experiment [6] was > 100 µM throughout.
Regarding `CCCCCCCCCCCCCCCCc1c(C(=O)OC)nc(NN)[nH]c1=O`, the TGI in experiment [1], in experiment [2], in [7], in experiment [3], in experiment [4] and in [8] was > 50 µM each time. Moreover, the TGI in experiment [5], in experiment [9] and in experiment [6] was > 50 µM throughout.
With `CCOC(=O)c1c(NC(=O)c2ccccc2)sc2c3c(ccc12)OCN(C)C3`, the GI50 in experiment [1] is 1.74 µM; in experiment [2], 2 µM; in [7] it was 1.73 µM; in experiment [3], 1.81 µM; in [4], 1.64 µM; in experiment [8], 1.2 µM. The GI50 was 1.65 µM in [5], 1.69 µM in experiment [9] and 1.03 µM in experiment [6]. Further, the TGI was found to be 3.23 µM in experiment [1]; 4.25 µM in experiment [2]; 3.56 µM in [7]; 3.54 µM in experiment [3]; 3.18 µM in [4]; 2.51 µM in experiment [8]. Further, the TGI in experiment [5] came out at 3.08 µM; in experiment [9] it was 3.87 µM; in experiment [6], 2.35 µM.
Regarding `O=c1ccc(=O)n(-c2ccccc2)[nH]1`, the TGI in experiment [1], in experiment [2], in [7], in [3], in experiment [4] and in experiment [8] was > 100 µM each time. Moreover, the TGI in experiment [5], in experiment [9] and in experiment [6] was > 100 µM each time.
Take `Cc1nc(N)c(-c2ccccc2)s1`: the TGI was 92.4 µM in experiment [1]; > 100 µM in [2]; > 100 µM in [7]; > 100 µM in [3]; > 100 µM in [4]; > 62.1 µM in [8]. The TGI in [5] was > 100 µM; in experiment [9], > 72.1 µM; in experiment [6], > 100 µM.
As to `N#Cc1ccccc1C#C/C=C\C#CC#C/C=C\C#Cc1ccccc1C#N`, the GI50 in experiment [1] was 16.3 µM; in [2] it was 3.39 µM; in experiment [7] it was 11 µM; in experiment [3] it was 23.9 µM; in [4], 15 µM; in [8] it was 12.7 µM. Besides, the figures for the GI50 in experiment [5] and in experiment [9] were 16.5 µM and 4.11 µM, respectively. The TGI is 53 µM in [1]; 94.4 µM in experiment [2]; > 100 µM in experiment [7]; 83 µM in experiment [3]; 91.6 µM in experiment [4]; > 100 µM in [8]. In addition, the TGI in experiment [5] and in [9] was > 100 µM throughout.
Regarding `O=C(O)c1c(Cl)c(Cl)c(Cl)c(Cl)c1C(=O)Nc1ccc2cn[nH]c2c1`, the TGI in experiment [1], in [2], in experiment [7], in experiment [3], in [4] and in experiment [8] was > 100 µM throughout. Further, the TGI in experiment [5] and in experiment [9] was > 100 µM in each case.
